Source: US20260285863A1, “COMPOUNDS CAPABLE OF MODULATING GPR65” (Pathios Therapeutics Limited, priority 2023, published 2026)

Target: T1, human recombinant GPR65 (Homo sapiens, UniProt Q8IYL9)
T1 construct: host or cells: 1321N1 human astrocytoma cells (1321N1-hrGPR65)
Test: Human GPR65 cAMP HTRF antagonist assay
Type: cell-based
Settings: 1321N1-hrGPR65 cells, assay pH 7.2, cAMP HTRF; read-out: hGPR65 IC50
Outline: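 1321N1 cells stably expressing human GPR65 were preincubated 30 min at room temperature with compound in KRH pH 7.6 containing 1 mM IBMX and 200 μM EDTA. They were then acid-stimulated to pH 7.2 for 30 min, with pH 7.9 as control. cAMP was read by HTRF (665/620 ratio), and IC50 came from normalised 4-parameter logistic fits.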

T1 sequence (Q8IYL9 whole entry): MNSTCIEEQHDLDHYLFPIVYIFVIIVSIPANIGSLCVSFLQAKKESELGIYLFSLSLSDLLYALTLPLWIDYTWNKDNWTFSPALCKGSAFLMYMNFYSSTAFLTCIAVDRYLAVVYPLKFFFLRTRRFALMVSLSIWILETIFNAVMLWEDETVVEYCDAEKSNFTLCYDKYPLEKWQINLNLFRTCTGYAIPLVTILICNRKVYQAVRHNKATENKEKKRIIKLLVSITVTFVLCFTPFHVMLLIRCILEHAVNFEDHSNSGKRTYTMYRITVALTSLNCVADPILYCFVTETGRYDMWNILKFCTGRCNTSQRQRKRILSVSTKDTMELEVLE

| Compound | IC50 [nM] |
| --- | --- |
| O=C(Nc1cc(Cl)c(NCc2cccc(OCC(F)(F)F)n2)cc1F)N1[C@H]2CC[C@@H]1c1n[nH]c(=O)cc1C2 [Compound 64, (6S,9R)-N-(5-chloro-2-fluoro-4-(((6-(2,2,2-trifluoroethoxy)pyridin-2-yl)methyl)amino)phenyl)-3-oxo-3,5,6,7,8,9-hexahydro-2H-6,9-epiminocyclohepta[c]pyridazine-10-carboxamide] | < 500 |
| O=C(Nc1cc(Cl)c(NCc2ccc(OCC(F)(F)F)cn2)cc1F)N1[C@H]2CC[C@@H]1c1n[nH]c(=O)cc1C2 [Compound 65, (6S,9R)-N-(5-chloro-2-fluoro-4-(((5-(2,2,2-trifluoroethoxy)pyridin-2-yl)methyl)amino)phenyl)-3-oxo-3,5,6,7,8,9-hexahydro-2H-6,9-epiminocyclohepta[c]pyridazine-10-carboxamide] | 500 to 5000 |
| O=C(Nc1cc(Cl)c(Cl)cc1F)N1[C@H]2CC[C@@H]1c1cc[n+]([O-])cc1C2 [Compound 66, (5R,8S)-10-((4,5-dichloro-2-fluorophenyl)carbamoyl)-6,7,8,9-tetrahydro-5H-5,8-epiminocyclohepta[c]pyridine 2-oxide] | < 500 |
| O=C(Nc1cc(Cl)c(C(F)(F)F)cc1F)N1[C@H]2CC[C@@H]1c1cc[n+]([O-])cc1C2 [Compound 67, (5R,8S)-10-((5-chloro-2-fluoro-4-(trifluoromethyl)phenyl)carbamoyl)-6,7,8,9-tetrahydro-5H-5,8-epiminocyclohepta[c]pyridine 2-oxide] | < 500 |
| Cc1nc2cc(-c3cc(F)c(NC(=O)N4[C@H]5CC[C@@H]4c4c[nH]c(=O)cc4C5)cc3Cl)ccc2[nH]1 [Compound 68, (6S,9R)-N-(5-chloro-2-fluoro-4-(2-methyl-1H-benzo[d]imidazol-5-yl)phenyl)-3-oxo-3,5,6,7,8,9-hexahydro-2H-6,9-epiminocyclohepta[c]pyridine-10-carboxamide] | 500 to 5000 |
| O=C(Nc1cc(Cl)c(-c2ccc(OCC(F)(F)F)nc2)cc1F)N1[C@@H]2CC[C@H]1C(F)(F)c1c2ccnc1F [Compound 71, (5R,8S)-N-(5-Chloro-2-fluoro-4-(6-(2,2,2-trifluoroethoxy)pyridin-3-yl)phenyl)-1,9,9-trifluoro-6,7,8,9-tetrahydro-5H-5,8-epiminocyclohepta[c]pyridine-10-carboxamide] | < 500 |
| O=C(Nc1cc(Cl)c(-c2ccc(OCC(F)(F)F)nc2)cc1F)N1[C@H]2CC[C@@H]1C(F)(F)c1c2ccnc1F [Compound 72, (5S,8R)-N-(5-Chloro-2-fluoro-4-(6-(2,2,2-trifluoroethoxy)pyridin-3-yl)phenyl)-1,9,9-trifluoro-6,7,8,9-tetrahydro-5H-5,8-epiminocyclohepta[c]pyridine-10-carboxamide] | < 500 |
| O=C(Nc1cc(Cl)c(-c2ccc3nonc3c2)cn1)N1[C@H]2CC[C@@H]1C(F)(F)c1c2ccnc1F [Compound 73, (5S,8R)-N-(5-(Benzo[c][1,2,5]oxadiazol-5-yl)-4-chloropyridin-2-yl)-1,9,9-trifluoro-6,7,8,9-tetrahydro-5H-5,8-epiminocyclohepta[c]pyridine-10-carboxamide] | 500 to 5000 |
| O=C(Nc1cc(Cl)c(-c2ccc3nonc3c2)cn1)N1[C@@H]2CC[C@H]1C(F)(F)c1c2ccnc1F [Compound 74, (5R,8S)-N-(5-(Benzo[c][1,2,5]oxadiazol-5-yl)-4-chloropyridin-2-yl)-1,9,9-trifluoro-6,7,8,9-tetrahydro-5H-5,8-epiminocyclohepta[c]pyridine-10-carboxamide] | < 500 |
| O=C(Nc1cc(Cl)c(-c2ccc3nonc3c2)cn1)N1[C@@H]2CC[C@H]1c1ccnc(F)c1[C@H]2F [Compound 75, (5S,8R,9R)-N-(5-(Benzo[c][1,2,5]oxadiazol-5-yl)-4-chloropyridin-2-yl)-1,9-difluoro-6,7,8,9-tetrahydro-5H-5,8-epiminocyclohepta[c]pyridine-10-carboxamide] | < 500 |
| O=C(Nc1cc(Cl)c(-c2ccc3nonc3c2)cn1)N1[C@@H]2CC[C@H]1[C@@H](F)c1c2ccnc1F [Compound 76, (5R,8S,9S)-N-(5-(Benzo[c][1,2,5]oxadiazol-5-yl)-4-chloropyridin-2-yl)-1,9-difluoro-6,7,8,9-tetrahydro-5H-5,8-epiminocyclohepta[c]pyridine-10-carboxamide] | < 500 |
| O=C(Nc1cc(Cl)c(-c2ccc(OC[C@@H]3CCOC3)nc2)cc1F)N1[C@H]2CC[C@@H]1c1n[nH]c(=O)cc1C2 [Compound 79, (6S,9R)-N-(5-Chloro-2-fluoro-4-(6-(((R)-tetrahydrofuran-3-yl)methoxy)pyridin-3-yl)phenyl)-3-oxo-3,5,6,7,8,9-hexahydro-2H-6,9-epiminocyclohepta[c]pyridazine-10-carboxamide] | < 500 |
| O=C(Nc1cc(Cl)c(-c2ccc(OC[C@H]3CCOC3)nc2)cc1F)N1[C@H]2CC[C@@H]1c1n[nH]c(=O)cc1C2 [Compound 80, (6S,9R)-N-(5-Chloro-2-fluoro-4-(6-(((S)-tetrahydrofuran-3-yl)methoxy)pyridin-3-yl)phenyl)-3-oxo-3,5,6,7,8,9-hexahydro-2H-6,9-epiminocyclohepta[c]pyridazine-10-carboxamide] | < 500 |
| O=C(Nc1cc(Cl)c(-c2ccc(OC[C@H]3CC3(F)F)nc2)cc1F)N1[C@H]2CC[C@@H]1c1n[nH]c(=O)cc1C2 [Compound 81, (6S,9R)-N-(5-Chloro-4-(6-(((R)-2,2-difluorocyclopropyl)methoxy)pyridin-3-yl)-2-fluorophenyl)-3-oxo-3,5,6,7,8,9-hexahydro-2H-6,9-epiminocyclohepta[c]pyridazine-10-carboxamide] | < 500 |
| O=C(Nc1cc(Cl)c(-c2ccc(OC[C@H]3CC3(F)F)nc2)cc1F)N1[C@H]2CC[C@@H]1c1c[nH]c(=O)cc1C2 [Compound 82, (6S,9R)-N-(5-Chloro-4-(6-(((R)-2,2-difluorocyclopropyl)methoxy)pyridin-3-yl)-2-fluorophenyl)-3-oxo-3,5,6,7,8,9-hexahydro-2H-6,9-epiminocyclohepta[c]pyridine-10-carboxamide] | < 500 |
| O=C(Nc1cc(Cl)c(-c2ccc(OC[C@@H]3CC3(F)F)nc2)cc1F)N1[C@H]2CC[C@@H]1c1n[nH]c(=O)cc1C2 [Compound 83, (6S,9R)-N-(5-Chloro-4-(6-(((S)-2,2-difluorocyclopropyl)methoxy)pyridin-3-yl)-2-fluorophenyl)-3-oxo-3,5,6,7,8,9-hexahydro-2H-6,9-epiminocyclohepta[c]pyridazine-10-carboxamide] | < 500 |
| O=C(Nc1cc(Cl)c(-c2ccc(OC3CCOCC3)nc2)cc1F)N1[C@H]2CC[C@@H]1c1n[nH]c(=O)cc1C2 [Compound 84, (6S,9R)-N-(5-Chloro-2-fluoro-4-(6-((tetrahydro-2H-pyran-4-yl)oxy)pyridin-3-yl)phenyl)-3-oxo-3,5,6,7,8,9-hexahydro-2H-6,9-epiminocyclohepta[c]pyridazine-10-carboxamide] | < 500 |
| O=C(Nc1cc(Cl)c(-c2ccc(OC[C@@H]3CC3(F)F)nc2)cc1F)N1[C@H]2CC[C@@H]1c1c[nH]c(=O)cc1C2 [Compound 85, (6S,9R)-N-(5-Chloro-4-(6-(((S)-2,2-difluorocyclopropyl)methoxy)pyridin-3-yl)-2-fluorophenyl)-3-oxo-3,5,6,7,8,9-hexahydro-2H-6,9-epiminocyclohepta[c]pyridine-10-carboxamide] | < 500 |
| O=C(Nc1cc(Cl)c(-c2ccc(OCC3(F)CC3)nc2)cc1F)N1[C@H]2CC[C@@H]1c1n[nH]c(=O)cc1C2 [Compound 86, (6S,9R)-N-(5-Chloro-2-fluoro-4-(6-((1-fluorocyclopropyl)methoxy)pyridin-3-yl)phenyl)-3-oxo-3,5,6,7,8,9-hexahydro-2H-6,9-epiminocyclohepta[c]pyridazine-10-carboxamide] | < 500 |
| O=C(Nc1cc(Cl)c(-c2ccc(OC3CCS(=O)(=O)CC3)nc2)cc1F)N1[C@H]2CC[C@@H]1c1n[nH]c(=O)cc1C2 [Compound 87, (6S,9R)-N-(5-Chloro-4-(6-((1,1-dioxidotetrahydro-2H-thiopyran-4-yl)oxy)pyridine-3-yl)-2-fluorophenyl)-3-oxo-3,5,6,7,8,9-hexahydro-2H-6,9-epiminocyclohepta[c]pyridazine-10-carboxamide] | < 500 |
| O=C(Nc1cc(Cl)c(Cl)cc1OCC1CC1(F)F)N1[C@H]2CC[C@@H]1c1n[nH]c(=O)cc1C2 (stereo partly drawn) [Compound 88, (6S,9R)-N-(4,5-Dichloro-2-((2,2-difluorocyclopropyl)methoxy)phenyl)-3-oxo-3,5,6,7,8,9-hexahydro-2H-6,9-epiminocyclohepta[c]pyridazine-10-carboxamide] | > 5000 |
| O=C(Nc1cc(Cl)c(Cl)cc1OCC1(F)CC1)N1[C@H]2CC[C@@H]1c1n[nH]c(=O)cc1C2 [Compound 89, (6S,9R)-N-(4,5-Dichloro-2-((1-fluorocyclopropyl)methoxy)phenyl)-3-oxo-3,5,6,7,8,9-hexahydro-2H-6,9-epiminocyclohepta[c]pyridazine-10-carboxamide] | > 5000 |
| O=C1c2ccc(NC(=O)N3[C@H]4CC[C@@H]3c3n[nH]c(=O)cc3C4)cc2C(=O)N1c1ccc(OCC(F)(F)F)nc1 [Compound 91, (6S,9R)-N-(1,3-Dioxo-2-(6-(2,2,2-trifluoroethoxy)pyridin-3-yl)isoindolin-5-yl)-3-oxo-3,5,6,7,8,9-hexahydro-2H-6,9-epiminocyclohepta[c]pyridazine-10-carboxamide] | 500 to 5000 |
| O=C(Nc1cc(Cl)c(-c2ccc(Nc3cc(Cl)c(-c4ccc(OCC(F)(F)F)nc4)cc3F)nc2)cc1F)N1[C@H]2CC[C@@H]1c1n[nH]c(=O)cc1C2 [Compound 92, (6S,9R)-N-(5-Chloro-4-(6-((5-chloro-2-fluoro-4-(6-(2,2,2-trifluoroethoxy)pyridin-3-yl)phenyl)amino)pyridin-3-yl)-2-fluorophenyl)-3-oxo-3,5,6,7,8,9-hexahydro-2H-6,9-epiminocyclohepta[c]pyridazine-10-carboxamide] | < 500 |
